According to patent publication US5399565A, “Pyrazolidinone CCK and gastrin antagonists and pharmaceutical formulations therof” (priority 1993, dated 1995):

Columns and labels:
brain CCK receptor = biological target: T1, brain CCK receptor (Mus musculus, UniProt P56481); test: CCK receptor binding, mouse brain membranes (125I-CCK-8 sulfate); settings: for inhibition at 10 µM / inhibition at 1 µM: read-out: Brain Percent Inhibition; for IC50: mouse brain membranes, read-out: Brain IC50
T1 construct: from tissue; host or cells: forebrain membranes of male CF-1 mice
T1 sequence (P56481 1-453): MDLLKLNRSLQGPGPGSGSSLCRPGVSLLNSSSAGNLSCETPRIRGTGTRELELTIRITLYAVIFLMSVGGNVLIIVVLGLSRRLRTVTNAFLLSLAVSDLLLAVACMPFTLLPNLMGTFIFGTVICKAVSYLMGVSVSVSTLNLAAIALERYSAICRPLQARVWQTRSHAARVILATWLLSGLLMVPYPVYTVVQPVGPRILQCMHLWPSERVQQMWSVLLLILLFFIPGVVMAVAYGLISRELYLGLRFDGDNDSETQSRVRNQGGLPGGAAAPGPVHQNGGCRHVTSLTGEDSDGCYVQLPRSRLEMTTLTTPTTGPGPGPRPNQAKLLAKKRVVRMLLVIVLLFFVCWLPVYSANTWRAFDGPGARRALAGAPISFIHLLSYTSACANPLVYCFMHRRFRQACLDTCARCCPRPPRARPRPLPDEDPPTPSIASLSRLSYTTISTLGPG
Protocol: Brain CCK receptor binding was performed using mouse brain membranes according to the method of Chang and Lotti (Proc. Natl. Acad. Sci. 83: 4923-4926, 1986). Male CF-1 mice, 23-25 g were sacrificed by cervical dislocation, the forebrain removed and placed in ice cold 50 mM Tris buffer, pH 7.4. The tissue was homogenized in 100 volumes of the Tris buffer with a Brinkman Polytron or Tekmar Tissumizer and then centrifuged at 40,000 g for 10 min. Pellets were resuspended in Tris buffer, centrifuged as above and then resuspended in 100 volumes of assay buffer, pH 6.5 (20 mM N-2-hydroxyethyl-piperazine-N'-2-ethane sulfonic acid (HEPES), 1 mM ethylene glycol his (2-aminoethyl ether-N,N,N',N'-tetraacetic acid) (EGTA), 5 mM MgCl2, 130 mM NaCl, and 0.25 mg/ml bacitracin). The binding assay consisted of 50 μL of compound (or buffer for total binding), 50 μL of ^125 I-CCK-8 sulfate (20 pM) (Amersham IM- 159), 200 μL of assay buffer and 200 μL of homogenate (80-120 μg protein). The samples were incubated at room temperature (25°) for 2 hours, and they were then filtered through GF/B glass fiber filters (soaked in wash buffer for 2 hours before use) using a 48 well Brandel cell harvester designed for receptor binding. The filters were washed twice with 3 ml of 50 mM Tris buffer, pH 7.4, containing 0.01% BSA and then counted for radioactivity in plastic tubes with a Micromedic 10/600 automatic gamma counter.
Compounds were dissolved in dimethyl sulfoxide (DMSO) at a concentration of 10 mM and then further diluted with assay buffer. The concentration of DMSO in the incubation was 0.1% or less and had no effect on the assay at that level. IC-50 values of displacement curves were determined using 7 concentrations of compound and were calculated using the ALLFIT computer program of DeLean, Munson and Rodbard (Am. J. Physiol. 235: E97-E102, 1978). Non-specific binding was determined as the displacement of the radioligand by 100 nM CCK-8 sulfate.

[1] = biological target: T2, peripheral type CCK receptors in rat pancreas (Rattus norvegicus, UniProt P30551); test: Binding to peripheral type CCK receptors in rat pancreas (3H-L-364,718); settings: at 10 μM; read-out: Pancreas Percent Inhibition
T2 construct: Pancreas was obtained from male Sprague-Dawley rats; from tissue; host or cells: pancreas membranes of male Sprague-Dawley rats
T2 sequence (P30551 1-444): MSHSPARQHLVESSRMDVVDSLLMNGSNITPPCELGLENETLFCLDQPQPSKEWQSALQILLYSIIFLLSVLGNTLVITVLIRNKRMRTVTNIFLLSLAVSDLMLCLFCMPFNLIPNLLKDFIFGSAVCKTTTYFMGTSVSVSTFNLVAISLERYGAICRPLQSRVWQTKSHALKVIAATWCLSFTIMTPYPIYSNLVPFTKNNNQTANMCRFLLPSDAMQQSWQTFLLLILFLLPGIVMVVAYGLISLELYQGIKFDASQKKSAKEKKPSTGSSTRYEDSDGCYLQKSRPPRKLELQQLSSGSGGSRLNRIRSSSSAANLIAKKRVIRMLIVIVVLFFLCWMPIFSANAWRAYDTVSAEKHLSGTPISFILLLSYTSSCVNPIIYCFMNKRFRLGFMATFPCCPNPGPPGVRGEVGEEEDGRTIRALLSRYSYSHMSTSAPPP
Protocol: Binding to peripheral type CCK receptors in rat pancreas was done according to the method of Chang et al. (Mol. Pharmacol. 30: 212-217, 1986) using ^3 H-L364, 718. Pancreas was obtained from male Sprague-Dawley rats, 150-200 g, after decapitation, and dissected free from adipose and connective tissue. The tissue was homogenized in 30 volumes of 50 mM Tris buffer, pH 7.4 and centrifuged at 40,000 g for 10 min. The tissue pellet was washed by resuspension and centrifugation as described above. The final pellet was suspended in 500 volumes of assay buffer (50 mM Tris buffer, pH 7.4, 5 mM MgCl2, 0.14 mg/ml bacitracin, and 5 mM dithiothreitol) to give a protein concentration of 30-60 μg/200 μl . Reagent volumes for the assay were the same as those used for CCK binding to brain membranes. Tritium labeled L-364,718 (Dupont NEN, NET-971) was used as the ligand at a concentration of 0.4-0.6 nM. The samples were incubated 1 hour at room temperature and then filtered as described for the CCK-brain receptor. Scintillation cocktail was added to the filters which were counted for radioactivity using a Micromedic Taurus automatic liquid scintillation counter.
Compound samples were prepared and IC-50 values were determined as described for the CCK-brain experiments. Non-specific binding was that amount left bound to the filters after adding 100 nM L-364,718.

SMILES | inhibition at 10 µM (brain CCK receptor) [%] | inhibition at 10 µM [1] [%] | inhibition at 1 µM (brain CCK receptor) [%] | IC50 (brain CCK receptor) [nM]
O=C1NN(C(=O)Sc2ccc(Br)cc2)[C@@H](c2ccccc2)[C@@H]1c1ccccc1 (relative stereo) [Example 81] | 95 | 59 |  | 
O=C1NN(C(=O)Nc2ccc(C3CCCCC3)cc2)[C@@H](c2ccccc2)[C@@H]1c1ccccc1 (relative stereo) [Example 31] |  | 71 | 54 | 
O=C1NN(C(=O)Nc2ccc(Br)cc2)C(c2ccc([N+](=O)[O-])cc2)C1c1ccccc1 (centres unmarked) [Example 119] |  | 64 |  | 1200
CCOc1ccc(NC(=O)N2NC(=O)[C@@H](c3ccccc3)[C@@H]2c2ccccc2)cc1 (relative stereo) [Example 34] |  | 12 |  | 1500
CN1C(=O)[C@H](c2ccccc2)[C@@H](c2ccccc2)N1C(=O)Nc1cccc(Cl)c1Cl (relative stereo) [Example 66] | 40 | 23 |  | 
O=C1NN(C(=O)Cc2ccc(Cl)c(Cl)c2)[C@@H](c2ccccc2)[C@@H]1c1ccccc1 (relative stereo) [Example 78] |  | 49 |  | 1800
O=C1NN(C(=O)Nc2ccc(-c3ccccc3)cc2)[C@@H](c2ccccc2)[C@@H]1c1ccccc1 (relative stereo) [Example 32] |  | 69 | 42 | 
O=C1NN(C(=O)Nc2ccccc2C(F)(F)F)[C@H](c2ccccc2)[C@H]1c1ccccc1 (relative stereo) [Example 53] |  | 17 |  | 1200
O=C(Nc1ccc(Cl)c(C(F)(F)F)c1)N1N[C@@H](c2ccccc2)[C@H](c2ccccc2)C1=O (relative stereo) [Example 8, 2-[(4-Chloro-3-trifluoromethylphenyl)amino-carbonyl]-4,5-diphenyl-3-pyrazolidinone] | 34 | 2 |  | 
C[C@@H](NC(=O)N1NC(=O)C(c2ccccc2)C1c1ccccc1)c1ccccc1 (some centres unmarked) [Example 102] |  | 11 |  | 4700
CC(C)C1C(c2ccccc2)C(=O)NN1C(=O)Nc1ccc(Br)cc1 (centres unmarked) [Example 73] | 16 | 20 |  | 
O=C1NN(C(=O)Nc2cccnc2)[C@@H](c2ccccc2)[C@@H]1c1ccccc1 (relative stereo) [Example 88] | 40 | 37 |  | 
O=C(O)CN1C(=O)[C@@H](c2ccccc2)[C@H](c2ccccc2)N1C(=O)Nc1ccc(Br)cc1 (relative stereo) [Example 12 (N--), 1-[(4-Bromophenyl)aminocarbonyl]-2-carboxymethyl-4,5-diphenyl-3-pyrazolidinone] |  | 55 |  | 1900
COc1ccc(NC(=O)N2NC(=O)[C@@H](c3ccccc3)[C@@H]2c2ccccc2)cc1 (relative stereo) [Example 33] |  | 20 |  | 340
O=C1NN(C(=O)Nc2ccc(F)cc2F)[C@H](c2ccccc2)[C@H]1c1ccccc1 (relative stereo) [Example 56] |  | 15 | 25 | 
O=C1NN(C(=O)Oc2ccc([N+](=O)[O-])cc2)[C@@H](c2ccccc2)[C@@H]1c1ccccc1 (relative stereo) [Example 80] |  | 9 |  | 5200

SMILES | inhibition at 10 µM (brain CCK receptor) [%] | inhibition at 10 µM [1] [%] | inhibition at 1 µM (brain CCK receptor) [%] | IC50 (brain CCK receptor) [nM]
O=C1NN(c2nc3ccc(Br)cc3s2)[C@@H](c2ccccc2)[C@@H]1c1ccccc1 (relative stereo) [Example 85] | 78 | 19 |  | 
O=C1NN(C(=O)c2ccc(Cl)c(Cl)c2)[C@H](c2ccccc2)[C@H]1c1ccccc1 (relative stereo) [Example 75] | 60 | 40 |  | 
O=C1NN(C(=O)Cc2ccc(C(F)(F)F)cc2)[C@H](c2ccccc2)[C@H]1c1ccccc1 (relative stereo) [Example 77] | 56 | 20 |  | 
COc1ccc(C2C(=O)NN(C(=O)Nc3ccc(Br)cc3)C2c2ccccc2)cc1 (centres unmarked) [Example 128] |  | 39 |  | 490
O=C1NN(C(=O)Nc2cccc([N+](=O)[O-])c2)[C@H](c2ccccc2)[C@H]1c1ccccc1 (relative stereo) [Example 40] |  | 38 |  | 750
O=C1NN(C(=O)Nc2cc(C(F)(F)F)cc(C(F)(F)F)c2)[C@H](c2ccccc2)[C@H]1c1ccccc1 (relative stereo) [Example 58] |  | 85 | 10 | 
CC(C)Oc1ccc(NC(=O)N2NC(=O)[C@@H](c3ccccc3)[C@@H]2c2ccccc2)cc1 (relative stereo) [Example 35] |  | 48 |  | 390
O=C1NN(C(=O)Nc2cccc(Cl)c2Cl)[C@H](c2ccccc2)[C@H]1c1ccccc1 (relative stereo) [Example 54] |  | 53 |  | 1150
O=C1NN(C(=O)Nc2cc(Cl)cc(Cl)c2)[C@H](c2ccccc2)[C@H]1c1ccccc1 (relative stereo) [Example 59] |  | 75 | 44 | 
O=C1NN(C(=S)Nc2cccc(C(F)(F)F)c2)[C@H](c2ccccc2)[C@H]1c1ccccc1 (relative stereo) [Example 61] | 56 | 78 |  | 
CCCCC1C(c2ccccc2)C(=O)NN1C(=O)Nc1cccc(C(F)(F)F)c1 (centres unmarked) [Example 70] |  | 36 | 13 | 
O=C1NN(C(=O)Nc2ccc(F)c(Cl)c2)[C@H](c2ccccc2)[C@H]1c1ccccc1 (relative stereo) [Example 47] |  | 51 |  | 390
O=C1NN(C(=O)NC2CCCCC2)[C@@H](c2ccccc2)[C@@H]1c1ccccc1 (relative stereo) [Example 95] | 55 | 18 |  | 
O=C1NN(C(=O)Nc2ccc(F)cc2)[C@@H](c2ccccc2)[C@@H]1c1ccccc1 (relative stereo) [Example 17] |  | 6 |  | 520
O=C1NN(C(=O)N2CCc3ccccc3C2)[C@@H](c2ccccc2)[C@@H]1c1ccccc1 (relative stereo) [Example 109] |  | 11 |  | 6000
